From the NIST ThermoML archive (doi:10.1021/je0342062)

What was measured:
[1] = 101.33 kPa, Liquid, Vibrating tube method
[2] = xn = mol fraction of the nth substance listed; conditions: 308.15 K, 101.32 kPa, Liquid, Vibrating tube method
[3] = excess molar enthalpy (molar enthalpy of mixing); xn = mol fraction of the nth substance listed; conditions: 308.15 K, 101.32 kPa, Liquid

OCCOCCO [diethylene glycol]
[1]
Conditions	mass density [kg/m3]
298.15 K	1112.38
308.15 K	1105.88

OCc1ccccc1 [benzenemethanol] + OCCOCCO
Conditions	excess molar enthalpy [kcal/mol]	mass density [kg/m3]
[2], x2 = 0.0719	–	1038.79
[2], x2 = 0.1308	–	1042.93
[2], x2 = 0.2285	–	1049.76
[2], x2 = 0.3115	–	1055.63
[2], x2 = 0.4139	–	1062.92
[2], x2 = 0.5312	–	1071.36
[2], x2 = 0.6035	–	1076.6
[2], x2 = 0.7277	–	1085.7
[2], x2 = 0.8237	–	1092.77
[2], x2 = 0.8597	–	1095.43
[2], x2 = 0.8984	–	1098.29
[2], x2 = 0.9539	–	1102.43
[3], x2 = 0.0434	-0.0338	–
[3], x2 = 0.0833	-0.0564	–
[3], x2 = 0.1199	-0.0717	–
[3], x2 = 0.1537	-0.0822	–
[3], x2 = 0.2142	-0.0945	–
[3], x2 = 0.2665	-0.101	–
[3], x2 = 0.3528	-0.105	–
[3], x2 = 0.4208	-0.107	–
[3], x2 = 0.5216	-0.109	–
[3], x2 = 0.6206	-0.107	–
[3], x2 = 0.6856	-0.102	–
[3], x2 = 0.7658	-0.0887	–
[3], x2 = 0.8135	-0.0791	–
[3], x2 = 0.8674	-0.0599	–
[3], x2 = 0.897	-0.0501	–
[3], x2 = 0.929	-0.0362	–
[3], x2 = 0.9632	-0.0197	–

OCCOCCOCCO [triethylene glycol]
[1]
Conditions	mass density [kg/m3]
298.15 K	1119.78
308.15 K	1112.61

OCc1ccccc1 [benzenemethanol] + OCCO
Conditions	excess molar enthalpy [kcal/mol]	mass density [kg/m3]
[2], x2 = 0.0395	–	1035.06
[2], x2 = 0.1313	–	1038.54
[2], x2 = 0.2622	–	1044.29
[2], x2 = 0.3189	–	1047.1
[2], x2 = 0.4645	–	1055.28
[2], x2 = 0.5057	–	1057.9
[2], x2 = 0.609	–	1065.04
[2], x2 = 0.6863	–	1071.03
[2], x2 = 0.7371	–	1075.32
[2], x2 = 0.8097	–	1081.99
[2], x2 = 0.879	–	1088.96
[2], x2 = 0.9638	–	1098.48
[3], x2 = 0.0719	0.0277	–
[3], x2 = 0.1341	0.0409	–
[3], x2 = 0.1886	0.0482	–
[3], x2 = 0.2365	0.05	–
[3], x2 = 0.3173	0.0512	–
[3], x2 = 0.3826	0.0503	–
[3], x2 = 0.4817	0.048	–
[3], x2 = 0.5533	0.0457	–
[3], x2 = 0.6502	0.0402	–
[3], x2 = 0.7361	0.0331	–
[3], x2 = 0.788	0.0282	–
[3], x2 = 0.848	0.0206	–
[3], x2 = 0.8815	0.017	–
[3], x2 = 0.9177	0.0114	–
[3], x2 = 0.937	0.00875	–
[3], x2 = 0.9571	0.00602	–
[3], x2 = 0.9781	0.00299	–

OCc1ccccc1 [benzenemethanol]
[1]
Conditions	mass density [kg/m3]
298.15 K	1041.46
308.15 K	1033.7

OCc1ccccc1 [benzenemethanol] + OCCOCCOCCO
Conditions	excess molar enthalpy [kcal/mol]	mass density [kg/m3]
[2], x2 = 0.0519	–	1039.48
[2], x2 = 0.174	–	1051.93
[2], x2 = 0.2411	–	1058.18
[2], x2 = 0.3373	–	1066.69
[2], x2 = 0.4327	–	1074.57
[2], x2 = 0.5295	–	1082.04
[2], x2 = 0.632	–	1089.43
[2], x2 = 0.7533	–	1097.6
[2], x2 = 0.8256	–	1102.12
[2], x2 = 0.8572	–	1104.07
[2], x2 = 0.9337	–	1108.5
[2], x2 = 0.961	–	1110.01
[3], x2 = 0.0313	-0.0333	–
[3], x2 = 0.0606	-0.0576	–
[3], x2 = 0.0883	-0.0752	–
[3], x2 = 0.1143	-0.0883	–
[3], x2 = 0.1623	-0.104	–
[3], x2 = 0.2047	-0.111	–
[3], x2 = 0.2792	-0.118	–
[3], x2 = 0.3405	-0.12	–
[3], x2 = 0.4366	-0.121	–
[3], x2 = 0.5376	-0.121	–
[3], x2 = 0.6078	-0.12	–
[3], x2 = 0.6992	-0.109	–
[3], x2 = 0.756	-0.0968	–
[3], x2 = 0.823	-0.0791	–
[3], x2 = 0.8613	-0.0665	–
[3], x2 = 0.9029	-0.0502	–
[3], x2 = 0.949	-0.0239	–
